Measured values reported in the supplement of paper PMC6045584.
± gives the standard deviation of the averaged measurements.

Compound: COc1ccc(C2=N[C@@H](c3ccc(Cl)cc3)[C@@H](c3ccc(Cl)cc3)N2C(=O)N2CCNC(=O)C2)c(OC(C)C)c1 [NUTLIN3]
Test: surviving fraction relative to DMSO-only wells; higher = less growth inhibition
Settings: 1000 nM; exposure time: 5 days
Procedure, shortened: (§1)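 For each tumour cell line, log-phase cells were put into 384-well plates at 250–500 cells per well, then after 24 hours exposed continuously for five days to inhibitors at 0.5, 1, 5, 10, 50, 100, 500 and 1000 nM. Viability was assessed by CellTiter-Glo luminescence, with surviving fraction expressed relative to the median of DMSO-only wells. Lines were screened three times and retained only if replicate Pearson r exceeded 0.7 and median Z' exceeded 0.3.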

Going from NY BONE to NOS1 BONE, the surviving fraction rises from 0.972 ± 0.012 to 1.08 ± 0.04.

Compound: CS(=O)(=O)CCNCc1ccc(-c2ccc3ncnc(Nc4ccc(OCc5cccc(F)c5)c(Cl)c4)c3c2)o1 [LAPATINIB]
Test: as above
Settings: 0.5 nM; exposure time: 5 days
Procedure, shortened: as §1

SCC36 HEADNECK and OS25HAL BONE are within error of each other in surviving fraction: 1.03 ± 0.067 for the first, 1.01 ± 0.018 for the second.

HCC1806 BREAST and HU09 BONE are within error of each other in surviving fraction: 1.01 ± 0.083 for the first, 0.937 ± 0.082 for the second.

SG43 HEADNECK and U2OS BONE are within error of each other in surviving fraction: 0.869 ± 0.17 for the first, 1.03 ± 0.031 for the second.

HOSMNG BONE and CASKI CERVIX are within error of each other in surviving fraction: 0.92 ± 0.06 for the first, 0.884 ± 0.037 for the second.

Compared with SUM44 BREAST, MDAMB231 BREAST is lower in surviving fraction: 1.05 ± 0.069 for the first, 0.9471 ± 0.0072 for the second.

CAL51 BREAST and MDAMB436 BREAST are within error of each other in surviving fraction: 0.966 ± 0.078 for the first, 0.893 ± 0.14 for the second.

HSSYII SYNOVIAL and MDAMB157 BREAST are within error of each other in surviving fraction: 0.98 ± 0.042 for the first, 1 ± 0.11 for the second.

CHLA90 AUTONOMIC GANGLIA and CADOES1 SOFT TISSUE are within error of each other in surviving fraction: 0.964 ± 0.031 for the first, 0.959 ± 0.045 for the second.

SG31 HEADNECK and SCC47 HEADNECK are within error of each other in surviving fraction: 1.17 ± 0.26 for the first, 1.09 ± 0.1 for the second.

S68 BREAST and SNU475 LIVER are within error of each other in surviving fraction: 1.12 ± 0.24 for the first, 1.01 ± 0.013 for the second.

22RV1 PROSTATE and SG32 HEADNECK are within error of each other in surviving fraction: 1.01 ± 0.05 for the first, 1.05 ± 0.22 for the second.

SCC003 HEADNECK and “JURKAT HAEMATOPOIETIC AND LYMPHOID TISSUE” are within error of each other in surviving fraction: 1.08 ± 0.05 for the first, 0.997 ± 0.078 for the second.

HT1080 SOFT TISSUE and CAL120 BREAST are within error of each other in surviving fraction: 0.997 ± 0.044 for the first, 1.02 ± 0.052 for the second.

First: MCF7 BREAST
Second: MFM223 BREAST
The surviving fraction of the first is lower: 0.988 ± 0.053 for the first, 1.18 ± 0.13 for the second.

First: LNCAP PROSTATE
Second: PCI30 HEADNECK
The surviving fraction of the first is lower: 0.894 ± 0.055 for the first, 1.06 ± 0.033 for the second.

OSHN BONE and SG28 HEADNECK are within error of each other in surviving fraction: 1.03 ± 0.026 for the first, 0.979 ± 0.1 for the second.

HOS BONE and HUO3N1 BONE are within error of each other in surviving fraction: 1.017 ± 0.01 for the first, 1.05 ± 0.044 for the second.

Compared with BT20 BREAST, SJSA1 BONE is higher in surviving fraction: 1.12 ± 0.065 for the first, 1.471 ± 0.007 for the second.

JIMT1 BREAST and HCC78 LUNG are within error of each other in surviving fraction: 0.991 ± 0.035 for the first, 0.98 ± 0.029 for the second.

NY BONE and NOS1 BONE are within error of each other in surviving fraction: 1.02 ± 0.025 for the first, 1.16 ± 0.16 for the second.

Same assay, conditions: 1 nM; exposure time: 5 days

SCC36 HEADNECK and OS25HAL BONE are within error of each other in surviving fraction: 1.1 ± 0.089 for the first, 1.06 ± 0.018 for the second.

First: HCC1806 BREAST
Second: HU09 BONE
The surviving fraction of the first is higher: 1.12 ± 0.028 for the first, 0.937 ± 0.031 for the second.

SG43 HEADNECK and U2OS BONE are within error of each other in surviving fraction: 0.93 ± 0.22 for the first, 1.034 ± 0.0044 for the second.

Compared with HOSMNG BONE, CASKI CERVIX is lower in surviving fraction: 1.04 ± 0.05 for the first, 0.902 ± 0.013 for the second.

SUM44 BREAST and MDAMB231 BREAST are within error of each other in surviving fraction: 1.11 ± 0.19 for the first, 1.01 ± 0.032 for the second.

CAL51 BREAST and MDAMB436 BREAST are within error of each other in surviving fraction: 1.08 ± 0.024 for the first, 0.996 ± 0.13 for the second.

Going from HSSYII SYNOVIAL to RDES SOFT TISSUE, the surviving fraction rises from 0.943 ± 0.022 to 1.21 ± 0.12.

MDAMB157 BREAST and CHLA90 AUTONOMIC GANGLIA are within error of each other in surviving fraction: 0.991 ± 0.11 for the first, 0.99 ± 0.07 for the second.

CADOES1 SOFT TISSUE and SG31 HEADNECK are within error of each other in surviving fraction: 1.06 ± 0.096 for the first, 1.05 ± 0.18 for the second.

SCC47 HEADNECK and S68 BREAST are within error of each other in surviving fraction: 1.1 ± 0.016 for the first, 1.01 ± 0.2 for the second.

SNU475 LIVER and 22RV1 PROSTATE are within error of each other in surviving fraction: 1.03 ± 0.04 for the first, 1.1 ± 0.096 for the second.

SG32 HEADNECK and SCC003 HEADNECK are within error of each other in surviving fraction: 1.02 ± 0.1 for the first, 1.13 ± 0.054 for the second.

“JURKAT HAEMATOPOIETIC AND LYMPHOID TISSUE” and HT1080 SOFT TISSUE are within error of each other in surviving fraction: 1.02 ± 0.061 for the first, 1.06 ± 0.013 for the second.

Going from CAL120 BREAST to MCF7 BREAST, the surviving fraction falls from 1.03 ± 0.044 to 0.921 ± 0.032.

Compared with MFM223 BREAST, LNCAP PROSTATE is lower in surviving fraction: 1.18 ± 0.14 for the first, 0.981 ± 0.02 for the second.

PCI30 HEADNECK and OSHN BONE are within error of each other in surviving fraction: 1.05 ± 0.06 for the first, 1.098 ± 0.0061 for the second.

SG28 HEADNECK and HOS BONE are within error of each other in surviving fraction: 1.07 ± 0.03 for the first, 1.082 ± 0.01 for the second.

First: HUO3N1 BONE
Second: BT20 BREAST
The surviving fraction of the first is lower: 0.978 ± 0.069 for the first, 1.128 ± 0.0092 for the second.

Going from SJSA1 BONE to JIMT1 BREAST, the surviving fraction falls from 1.67 ± 0.035 to 1.02 ± 0.04.

HCC78 LUNG gave a surviving fraction of 0.972 ± 0.093.
